Results published in patent US8816085B2 (Takeda GmbH, priority 2009, dated 2014).

The compounds below were run against T1, PDE5A1 (human PDE5 from platelets) (Homo sapiens, UniProt O76074) (assay: Inhibition of type 5 phosphodiesterase (PDE5) activity, modified SPA test). Conditions: PDE5-containing human platelet lysate, 0.5 μM cGMP, value classes, read-out: PDE5A1 inhibitory values [measured as −logIC50 (mol/l)] (converted).
T1 construct: from tissue; host or cells: platelets from fresh blood of human donors (10,000 g supernatant of sonified platelets)
Format: biochemical
Procedure: Method for Measuring Inhibition of the Type 5 Phosphodiesterase (PDE5) Activity:
As a source for human PDE5, platelets are used. For that purpose, 150 ml fresh blood from human donors anticoagulated with citrate [final concentration 0.3% (w/v)] is centrifuged at 200 g for 10 min to obtain the so-called platelet-rich-plasma (PRP) as a supernatant. 1/10 volume of ACD solution (85 mM Na3-citrate, 111 mM D-glucose, 71 mM citric acid, pH 4.4) is added to 9/10 volume of PRP. After centrifugation (1,400 g, 10 min) the cell pellet is resuspended in 3 ml homogenization buffer (NaCl 140 mM, KCl 3.8 mM, EGTA (ethylene glycol tetraacetic acid) 1 mM, MgCl2 1 mM, Tris-HCl 20 mM, beta-mercaptoethanol 1 mM, pH 8.2) plus protease-inhibitor mix giving rise to the final concentrations of 0.5 mM Pefablock (Roche), 10 μM Leupeptin, 5 μM Trypsininhibitor, 2 mM Benzamidin and 10 μM Pepstatin A. The suspension is sonified and thereafter centrifuged for 15 min at 10,000 g. The resulting supernatant (platelet lysate) is used for enzymatic testings.
PDE5A1 activity is inhibited by the compounds of the present subject matter in a modified SPA (scintillation proximity assay) test, supplied by Amersham Biosciences (see procedural instructions “phosphodiesterase [3H]cAMP SPA enzyme assay, code TRKQ 7090”), carried out in 96-well microtitre plates (MTP's). The test volume is 100 μl and contains 20 mM Tris buffer (pH 7.4), 0.1 mg of BSA (bovine serum albumin)/ml, 5 mM Mg^2+, 1 μM motapizone, 10 nM PDE2 inhibitor 2-(3,4-dimethoxybenzyl)-7-[(1R,2R)-2-hydroxy-1-(2-phenylethyl)propyl]-5-methylimidazo[5,1-t][1,2,4]triazin-4(3H)-one, 0.5 μM cGMP (cyclic guanosine monophosphate) (including about 50,000 cpm of [3H]cGMP as a tracer), 1 μl of the respective compound dilution in dimethylsulfoxide (DMSO) and sufficient PDE5-containing platelet lysat (10,000×g supernatant, see above) to ensure that 10-20 wt % of the cGMP is converted under the said experimental conditions. […] After a preincubation of 5 min at 37° C., the reaction is started by adding the substrate (cGMP) and the assay is incubated for a further 15 min; after that, it is stopped by adding SPA beads (50 μl). In accordance with the manufacturer's instructions, the SPA beads had previously been resuspended in water, but are then diluted 1:3 (v/v) in water; the diluted solution also contains 3 mM 8-methoxymethyl-3-isobutyl-1-methylxanthine (IBMX) to ensure a complete PDE activity stop. After the beads have been sedimented (>30 min), the MTP's are analyzed in commercially available luminescence detection devices. The corresponding IC50 values of the compounds for the inhibition of PDE activity are determined from the concentration-effect curves by means of non-linear regression.
Work on `COCC(=O)N[C@H]1CC[C@@H](NC(=O)c2c(C)[nH]c3c(-c4c(OCC5CC5)ccc5c4OCO5)ccnc23)CC1` [Example E08, 7-[5-(Cyclopropylmethoxy)-1,3-benzodioxol-4-yl]-N-{cis-4-[(methoxyacetyl)amino]cyclohexyl}-2-methyl-1H-pyrrolo[3,2-b]pyridine-3-carboxamide] yielded an IC50 of under 1 nM.
Work on `CC(=O)N[C@H]1CC[C@@H](NC(=O)c2c(C)[nH]c3c(-c4cc(F)ccc4OCC4CC4)ccnc23)CC1` [Example E25, N-[cis-4-(Acetylamino)cyclohexyl]-7-[2-(cyclopropylmethoxy)-5-fluorophenyl]-2-methyl-1H-pyrrolo[3,2-b]pyridine-3-carboxamide] yielded an IC50 of 1 to 10 nM.
With `COCC(=O)N[C@H]1CC[C@@H](NC(=O)c2c(C)[nH]c3c(-c4cc(OC)ccc4OCC4CC4)ccnc23)CC1` [Example E48, 7-[2-(Cyclopropylmethoxy)-5-methoxyphenyl]-N-{cis-4-[(methoxyacetyl)amino]cyclohexyl}-2-methyl-1H-pyrrolo[3,2-b]pyridine-3-carboxamide] the IC50 was 1 to 10 nM.
`CC(=O)N[C@H]1CC[C@H](NC(=O)c2c(C)[nH]c3c(-c4cc(F)ccc4OCC4CC4)ccnc23)CC1` [Example E22, N-[trans-4-(Acetylamino)cyclohexyl]-7-[2-(cyclopropylmethoxy)-5-fluorophenyl]-2-methyl-1H-pyrrolo[3,2-b]pyridine-3-carboxamide] showed an IC50 of under 1 nM.
For `CCC(=O)N1C[C@@H](O)[C@H](NC(=O)c2c(C)[nH]c3c(-c4cc(OC)ccc4OCC4CC4)ccnc23)C1` (relative stereo) [Example E50, 7-[2-(Cyclopropylmethoxy)-5-methoxyphenyl]-N-[(3R*,4R*)-4-hydroxy-1-propanoylpyrrolidin-3-yl]-2-methyl-1H-pyrrolo[3,2-b]pyridine-3-carboxamide], the IC50 was 1 to 10 nM.
Compound `COCC(=O)N[C@H]1CC[C@H](NC(=O)c2c(C)[nH]c3c(-c4ccc(OC)cc4OCC4CC4)ccnc23)CC1` [Example E36, 7-[2-(Cyclopropylmethoxy)-4-methoxyphenyl]-N-{trans-4-[(methoxyacetyl)amino]cyclohexyl}-2-methyl-1H-pyrrolo[3,2-b]pyridine-3-carboxamide] has an IC50 of under 1 nM.
With `COCC(=O)N[C@H]1CC[C@H](NC(=O)c2c(C)[nH]c3c(-c4cc(OC)c(F)cc4OCC4CC4)ccnc23)CC1` [Example E66, 7-[2-(Cyclopropylmethoxy)-4-fluoro-5-methoxyphenyl]-N-{trans-4-[(methoxyacetyl)amino]cyclohexyl}-2-methyl-1H-pyrrolo[3,2-b]pyridine-3-carboxamide] the IC50 was under 1 nM.
`Cc1ccc(OCC2CC2)c(-c2ccnc3c(C(=O)NC4CCN(C(=O)[C@H](C)O)CC4)c(C)[nH]c23)c1` [Example F35, 7-[2-(cyclopropylmethoxy)-5-methylphenyl]-N-{1-[abs.(2S)-2-hydroxypropanoyl]piperidin-4-yl}-2-methyl-1H-pyrrolo[3,2-b]pyridine-3-carboxamide] showed an IC50 of 1 to 10 nM.
`COCC(=O)N1CCC(NC(=O)c2c(C)[nH]c3c(-c4cc(OC)ccc4OCC4CC4)ccnc23)CC1` [Example E42, 7-[2-(cyclopropylmethoxy)-5-methoxyphenyl]-N-[1-(methoxyacetyl)piperidin-4-yl]-2-methyl-1H-pyrrolo[3,2-b]pyridine-3-carboxamide] gave an IC50 of 1 to 10 nM.
Work on `COc1ccc(-c2ccnc3c(C(=O)N[C@H]4CC[C@H](NC(=O)[C@H](C)O)CC4)c(C)[nH]c23)c(OCC2CC2)c1` [Example F23, 7-[2-(Cyclopropylmethoxy)-4-methoxyphenyl]-N-(trans-4-{[(2S)-2-hydroxypropanoyl]amino}cyclohexyl)-2-methyl-1H-pyrrolo[3,2-b]pyridine-3-carboxamide] yielded an IC50 of under 1 nM.
`COc1cc(-c2ccnc3c(C(=O)NC4CCN(C(C)=O)CC4)c(C)[nH]c23)c(OCC2CC2)cc1F` [Example E61, N-(1-Acetylpiperidin-4-yl)-7-[2-(cyclopropylmethoxy)-4-fluoro-5-methoxyphenyl]-2-methyl-1H-pyrrolo[3,2-b]pyridine-3-carboxamide] was tested, and the IC50 was under 1 nM.
Work on `COCC(=O)N1C[C@@H](O)[C@H](NC(=O)c2c(C)[nH]c3c(-c4cc(OC)ccc4OCC4CC4)ccnc23)C1` (relative stereo) [Example E51, 7-[2-(Cyclopropylmethoxy)-5-methoxyphenyl]-N-[(3R*,4R*)-4-hydroxy-1-(methoxyacetyl)pyrrolidin-3-yl]-2-methyl-1H-pyrrolo[3,2-b]pyridine-3-carboxamide] yielded an IC50 of 1 to 10 nM.
In the case of `COCC(=O)N[C@H]1CC[C@@H](NC(=O)c2c(C)[nH]c3c(-c4ccc(F)cc4OCC4CC4)ccnc23)CC1` [Example E18, 7-[2-(Cyclopropylmethoxy)-4-fluorophenyl]-N-{cis-4-[(methoxyacetyl)amino]cyclohexyl}-2-methyl-1H-pyrrolo[3,2-b]pyridine-3-carboxamide], the IC50 is reported as 1 to 10 nM.
`COCC(=O)N[C@H]1CC[C@H](NC(=O)c2c(C)[nH]c3c(-c4ccc(F)cc4OCC4CC4)ccnc23)CC1` [Example E15, 7-[2-(Cyclopropylmethoxy)-4-fluorophenyl]-N-{trans-4-[(methoxyacetyl)amino]cyclohexyl}-2-methyl-1H-pyrrolo[3,2-b]pyridine-3-carboxamide] was tested, and the IC50 was under 1 nM.
In the case of `Cc1[nH]c2c(-c3ccc(F)cc3OCC3CC3)ccnc2c1C(=O)N[C@H]1CC[C@H](NC(=O)CO)CC1` [Example F08, 7-[2-(Cyclopropylmethoxy)-4-fluorophenyl]-N-{trans-4-[(hydroxyacetyl)amino]cyclohexyl}-2-methyl-1H-pyrrolo[3,2-b]pyridine-3-carboxamide], the IC50 is reported as 1 to 10 nM.
For `CCOC(=O)N1CCC(NC(=O)c2c(C)[nH]c3c(-c4c(OCC5CC5)ccc5c4OCO5)ccnc23)CC1` [Example E04, Ethyl 4-[({7-[5-(cyclopropylmethoxy)-1,3-benzodioxol-4-yl]-2-methyl-1H-pyrrolo[3,2-b]pyridin-3-yl}carbonyl)amino]piperidine-1-carboxylate], the IC50 was under 1 nM.
Work on `COCC(=O)N1CCC(NC(=O)c2c(C)[nH]c3c(-c4ccc(OC)cc4OCC4CC4)ccnc23)CC1` [Example E33, 7-[2-(Cyclopropylmethoxy)-4-methoxyphenyl]-N-[1-(methoxyacetyl)piperidin-4-yl]-2-methyl-1H-pyrrolo[3,2-b]pyridine-3-carboxamide] yielded an IC50 of under 1 nM.
Compound `CCC(=O)N1CCC(NC(=O)c2c(C)[nH]c3c(-c4cc(OC)ccc4OCC4CC4)ccnc23)CC1` [Example E41, 7-[2-(cyclopropylmethoxy)-5-methoxyphenyl]-2-methyl-N-(1-propanoylpiperidin-4-yl)-1H-pyrrolo[3,2-b]pyridine-3-carboxamide] has an IC50 of under 1 nM.
`COc1cc(-c2ccnc3c(C(=O)N[C@H]4CC[C@@H](NC(C)=O)CC4)c(C)[nH]c23)c(OCC2CC2)cc1F` [Example E67, N-[cis-4-(Acetylamino)cyclohexyl]-7-[2-(cyclopropylmethoxy)-4-fluoro-5-methoxyphenyl]-2-methyl-1H-pyrrolo[3,2-b]pyridine-3-carboxamide] showed an IC50 of under 1 nM.
Work on `CCC(=O)N[C@H]1CC[C@H](NC(=O)c2c(C)[nH]c3c(-c4ccc(F)cc4OCC4CC4)ccnc23)CC1` [Example E14] yielded an IC50 of under 1 nM.
Work on `CCC(=O)N[C@H]1CC[C@H](NC(=O)c2c(C)[nH]c3c(-c4cc(OC)c(F)cc4OCC4CC4)ccnc23)CC1` [Example E65, 7-[2-(Cyclopropylmethoxy)-4-fluoro-5-methoxyphenyl]-2-methyl-N-[trans-4-(propanoylamino)cyclohexyl]-1H-pyrrolo[3,2-b]pyridine-3-carboxamide] yielded an IC50 of under 1 nM.
`COCC(=O)N[C@H]1CC[C@@H](NC(=O)c2c(C)[nH]c3c(-c4cc(F)c(OC)cc4OCC4CC4)ccnc23)CC1` [Example E84, 7-[2-(Cyclopropylmethoxy)-5-fluoro-4-methoxyphenyl]-N-{cis-4-[(methoxyacetyl)amino]cyclohexyl}-2-methyl-1H-pyrrolo[3,2-b]pyridine-3-carboxamide] gave an IC50 of under 1 nM.
